# Test results: patent US20140037642A1, “METHODS AND COMPOSITIONS RELATING TO INHIBITION OF IGF-1R” (AMGEN INC., priority 2011, published 2014)
# What was measured:
# [1] = tested on: metastatic pancreatic cancer patients; experiment: Overall survival in baseline circulating biomarker subgroups of the phase 2 study; assay type: in vivo, human; set-up: Median OS: unit not given here
# Text: To establish the relationship between levels of these baseline markers and overall survival, a Cox proportional hazard model was used to calculate hazard ratios (HR) using normalized log transformed marker concentrations. This analysis tests the risk of death associated with a unit increase in the normalized log baseline biomarker and this risk is expressed as a hazard ratio. Because of the small sample size, it is difficult to dissect prognostic associations from relationships that are modified by treatment with ganitumab relative to placebo, i.e., predictive. This is because the addition of treatment effect adds a variable to the analysis that compromises the power of the test masking significant predictive relationships that may exist. However even a prognostic relationship identified in this analysis is important because it informs the hypothesized relationship between circulating bioavailable ligands and the adaptation of the tumor to IGF-1R dependent progression, and in turn sensitivity to inhibitors that block IGF-1R or downstream signaling pathways.
# This allows a direct test of the predictive value of using these markers in a dichotomized way to predict OS in pancreatic cancer patients that are treated with inhibitors of IGF-1R.
# To represent these relationships Kaplan-Maier plots were generated that show the OS for the high and low subgroups by plotting the fraction of patients in each sub-group that survive against time.
# [2] = tested on: metastatic pancreatic cancer patients; experiment: Placebo-controlled, randomized phase 2 study plus gemcitabine; assay type: in vivo, human
# Description: The primary endpoint was six month overall survival rate.
# Key inclusion criteria were histologically or cytologically documented metastatic adenocarcinoma of the pancreas, age eighteen years or older, ECOG PS 0 or 1, adequate hematologic, hepatic, renal, and coagulation function, amylase and lipase≦2.0×ULN, adequately controlled type 1 or 2 diabetes (amended during protocol to fasting blood glucose<[…] only), fasting blood glucose≦[…], HbAlc<8%, and written informed consent.
# Key exclusion criteria were uncontrolled cardiac disease and prior chemotherapy or radiation in the adjuvant or metastatic setting.
# IGF-1R = IGF-1R (Homo sapiens, UniProt P08069); conditions: biphasic binding; read-out: KD of high affinity binding to IGF-1R; cited from earlier work
# [3] = patients with measurable disease at baseline, plus gemcitabine
# [4] = plus gemcitabine, conatumumab 10 mg/kg Q2W or ganitumab 12 mg/kg Q2W
# [5] = plus gemcitabine, conatumumab 10 mg/kg Q2W or ganitumab 12 mg/kg Q2W, listed as conatumumab
# [6] = versus placebo plus gemcitabine
substance,measurement,setting,value
"Conatumumab: conatumumab (AMG 655), amino acid sequences in FIG. 19; given with gemcitabine in the phase 2 study",Median OS,[1]; IGF-2 High (>=median),214
same,"OS HR, treatment vs placebo",[1]; IGF-2 High (>=median),0.56
same,Median OS,[1]; IGF-2 Low (<median),263
same,"OS HR, treatment vs placebo",[1]; IGF-2 Low (<median),1.08
same,Median OS,[1]; IGF-BP1 High (>=median),178
same,"OS HR, treatment vs placebo",[1]; IGF-BP1 High (>=median),0.77
same,Median OS,[1]; IGF-BP1 Low (<median),254
same,"OS HR, treatment vs placebo",[1]; IGF-BP1 Low (<median),0.68
same,Median OS,[1]; IGF-BP2 High (>=median),178
same,"OS HR, treatment vs placebo",[1]; IGF-BP2 High (>=median),0.69
same,Median OS,[1]; IGF-BP2 Low (<median),244
same,"OS HR, treatment vs placebo",[1]; IGF-BP2 Low (<median),0.91
same,Median OS,[1]; IGF-BP3 High (>=median),244
same,"OS HR, treatment vs placebo",[1]; IGF-BP3 High (>=median),0.77
same,Median OS,[1]; IGF-BP3 Low (<median),129
same,"OS HR, treatment vs placebo",[1]; IGF-BP3 Low (<median),0.86
same,Median OS,[1]; IGF-BP4 High (>=median),216
same,"OS HR, treatment vs placebo",[1]; IGF-BP4 High (>=median),0.97
same,Median OS,[1]; IGF-BP4 Low (<median),216
same,"OS HR, treatment vs placebo",[1]; IGF-BP4 Low (<median),0.86
same,Median OS,[1]; Total IGF-1 High (>=median),231
same,"OS HR, treatment vs placebo",[1]; Total IGF-1 High (>=median),0.56
same,Median OS,[1]; Total IGF-1 Low (<median),178
same,"OS HR, treatment vs placebo",[1]; Total IGF-1 Low (<median),0.53
same,Best Overall Response: Confirmed CR - n (%),[2]; [3],0 (0) n (%)
same,Best Overall Response: Confirmed PR - n (%),[2]; [3],1 (3) n (%)
same,Best Overall Response: PD - n (%),[2]; [3],12 (32) n (%)
same,Best Overall Response: SD (Includes Unconfirmed PR) - n (%),[2]; [3],22 (58) n (%)
same,Best Overall Response: Unconfirmed PR - n (%),[2]; [3],2 (5) n (%)
same,Best Overall Response: Unknown - n (%),[2]; [3],3 (8) n (%)
same,"Abdominal pain, grade 3-5",[2]; plus gemcitabine,7 (17) n (%)
same,"Anemia, grade 3-5",[2]; plus gemcitabine,4 (10) n (%)
same,"Aspartate Aminotransferase Increased, grade 3-5",[2]; plus gemcitabine,3 (7) n (%)
same,"Deep Vein Thrombosis, grade 3-5",[2]; plus gemcitabine,4 (10) n (%)
same,"Fatigue, grade 3-5",[2]; plus gemcitabine,5 (12) n (%)
same,"Hyperbilirubinemia, grade 3-5",[2]; plus gemcitabine,2 (5) n (%)
same,"Hyperglycemia, grade 3-5",[2]; plus gemcitabine,1 (2) n (%)
same,"Hypotension, grade 3-5",[2]; plus gemcitabine,3 (7) n (%)
same,"Neutropenia, grade 3-5",[2]; plus gemcitabine,9 (22) n (%)
same,"Pulmonary Embolism, grade 3-5",[2]; plus gemcitabine,1 (2) n (%)
same,"Thrombocytopenia, grade 3-5",[2]; plus gemcitabine,7 (17) n (%)
same,rate of SD+PR,[2]; plus gemcitabine,61%
same,6-Month OS Rate (95% CI),[2]; [4],"59% (42, 73)"
same,12-Month OS Rate (95% CI),[2]; [4],"20% (9, 34)"
same,"Median OS, Months (95% CI)",[2]; [4],"7.5 (4.8, 10.0) Months"
same,"Median PFS, Months (95% CI)",[2]; [4],"4.0 (3.3, 5.0) Months"
same,6-Month OS Rate (95% CI),[2]; [5],59%
same,"Median PFS, Months (95% CI)",[2]; [5],4.0 Months
same,"Number of Patients Reporting ≧1 AE, grade 3-5","[2]; plus gemcitabine, conatumumab N = 41, ganitumab N = 40",36 (88) n (%)
same,"Stratified HR (95% CI), OS",[2]; [6],"0.87 (0.53, 1.43)"
same,"Stratified HR (95% CI), PFS",[2]; [6],"0.65 (0.41, 1.05)"
same,"Stratified HR (95% CI), PFS","[2]; versus placebo plus gemcitabine, listed as conatumumab",0.65
"IGF-2: insulin-like growth factor, ligand of IGF-1R",Kd,IGF-1R,~0.2 nM
